What was measured:
[1] = antitumour agent; cited from earlier work
[2] = system: A2780 cells; experiment: IC50 shift assay (combination), A2780 cells; format: cell-based
[3] = system: Human colon carcinoma cell line HT29; experiment: IC50 shift assay (combination), HT29 cells; format: cell-based; details: concurrent 72 hours, camptothecin 24 hours then Compound I 48 hours, or Compound I prior to camptothecin
Method: Human colon carcinoma cell line HT29 (ECACC No. 91072201) cells were seeded onto 96-well tissue culture plates at a concentration of 5×10^3 cells/well. Cells were allowed to recover overnight prior to addition of compound(s) or vehicle control (0.2% DMSO) as follows;
Compounds were added according to one of the following schedules; • a) Concurrent for 72 hours. • b) Compound I for 24 hours followed by camptothecin for 48 hours. • c) Camptothecin for 24 hours followed by Compound I for 48 hours.
Following a total of 72 hours compound incubation, Alamar Blue™ was added to a final concentration of 10% (v/v) and incubated at 37° C. for 6 hours. Fluorescent product was quantified by reading at d535/25× (excitation) and d590/20 m (emission) on a Fusion Reader (Perkin Elmer). The IC50 for camptothecin in the presence of varying doses of Compound I was determined.

[4] = system: HCT116 cell line; experiment: IC50 shift assay (combination), HCT116 cells; format: cell-based
[5] = system: SkBR3 cell line; experiment: IC50 shift assay (combination), SkBR3 cells; format: cell-based
[6] = system: human colon carcinoma cell line HCT 116; experiment: Anti-proliferative activity, HCT-116 cell line; format: cell-based; details: HCT 116 (ECACC No. 91091005)
Excerpt: See Example 15 of WO 2006/077426 at pages 100-101 (which is incorporated herein by reference).

[7] = system: PKC; details: cited from earlier work
[8] = system: OVCAR-3 tumour cells; details: in which PKB is amplified, concentrations of 50 and 100 microM; cited from earlier work
[9] = mice; doses 10 times more than were needed for antitumour activity; cited from earlier work
[10] = Thermogravimetric analysis; format: physicochemical
Method: Approximately 5 mg of sample (accurately weighed) was placed into a platinum TGA pan and loaded into a TGA 7 gravimetric analyser. The sample under study was then heated at a rate of 10° C./min (from ambient to 300° C.) and the resulting change in weight monitored. A dry nitrogen purge gas at a flow rate of 20 ml/min was used to produce an inert atmosphere and prevent oxidation of the sample during heating. Prior to analysis the instrument was weight calibrated using a 100 mg reference standard and temperature calibrated using an Alumel reference standard (using the Curie point transition temperature).

[11] = Vapour sorption/desorption analysis; format: physicochemical
Method: Approximately 20 mg of sample was placed into a wire-mesh vapour sorption balance pan and loaded into an ‘IgaSorp’ vapour sorption balance (Hiden Analytical Instruments) held at 25+/−0.1° C. The sample was then dried by maintaining a 0% humidity environment (using mass flow control apparatus) until no further weight change was recorded. Subsequently, the sample was then subjected to a ramping profile from 0-90% relative humidity (% RH) at 10% RH increments, maintaining the sample at each step until equilibration had been attained (99.5% step completion).
Upon reaching equilibration, the % RH within the apparatus was ramped to the next step and the equilibration procedure repeated. After completion of the sorption cycle, the sample was then dried using the same procedure. The weight change during the sorption/desorption cycles was then monitored, allowing for the hygroscopic nature of the sample to be determined.

[12] = system: Acute Promyelocytic Leukemia (APL); details: cited from earlier work
[13] = system: P-glycoprotein-overexpressing subline of leukemic cell line CCRF-CEM; details: cited from earlier work
[14] = system: CLL; details: initial therapy, symptomatic CLL patients, cited from earlier work

CCN[C@H]1CO[C@@H](O[C@H]2[C@H](O[C@H]3C#C/C=C\C#C[C@]4(O)CC(=O)C(NC(=O)OC)=C3/C4=C\CSSSC)O[C@H](C)[C@@H](NO[C@H]3C[C@H](O)[C@H](SC(=O)c4c(C)c(I)c(O[C@@H]5O[C@@H](C)[C@H](O)[C@@H](OC)[C@H]5O)c(OC)c4OC)[C@@H](C)O3)[C@@H]2O)C[C@@H]1OC [Calicheamicin]
potency relative to adriamycin [1]: over 1,000 times

O=C(NC1CCNCC1)c1n[nH]cc1NC(=O)c1c(Cl)cccc1Cl [Compound I, 4-(2,6-dichloro-benzoylamino)-1H-pyrazole-3-carboxylic acid piperidin-4-ylamide]
effect of combination with Paclitaxel in IC50 shift assay ([2]; Paclitaxel 24 h followed by Compound I 48 h): synergy
effect of combination with 5-FU in IC50 shift assay ([2]; added concurrently for 72 h): mildly synergistic
effect of combination with Iressa in IC50 shift assay ([2]; added concurrently for 72 h): synergistic
effect of combination with Paclitaxel in IC50 shift assay ([2]; added concurrently for 72 h): Additive
effect of combination with Cisplatin in IC50 shift assay ([2]; concurrently for 72 h or Cisplatin 24 h followed by compound I 48 h): additive
effect of combination with Etoposide in IC50 shift assay ([2]; concurrently for 72 h or Etoposide 24 h followed by compound I 48 h): additive
effect of combination with Gemcitibine in IC50 shift assay ([2]; concurrently for 72 h or Gemcitibine 24 h followed by Compound I 48 h): additive
effect of combination with Vinblastine in IC50 shift assay ([2]; concurrently for 72 h or Vinblastine 24 h followed by compound I 48 h): additive
effect of combination with camptothecin in IC50 shift assay [3]: additive
effect of combination with Iressa (synergy) confirmed [4]: confirmed
effect of combination with Iressa (synergy) confirmed [5]: confirmed

O=C(NC1CCNCC1)c1n[nH]cc1NC(=O)c1c(Cl)cccc1Cl [Example 1]
IC50 [6]: < 20 µM

O=S(=O)(NCCNCC=C(c1ccccc1)c1ccccc1)c1cccc2cnccc12 [NL-71-101]
IC50 [7]: 104 µM
apoptosis [8]: induced apoptosis

CCOC(=O)c1ccc2[nH]c3c(OC)c4[nH]c5ccc(C(=O)OCC)cc5c4cc3c2c1 [SR-13668]
adverse effects [9]: no adverse effects

CS(=O)(=O)N1CCC(NC(=O)c2n[nH]cc2NC(=O)c2c(Cl)cccc2Cl)CC1 [Set B Example 1, 4-(2,6-dichloro-benzoylamino)-1H-pyrazole-3-carboxylic acid (1-methanesulphonyl-piperidin-4-yl)-amide]
significant event (thermally induced partial degradation) in TGA plot ([10]; onset prior to the main melt transition): about 288 °C
mass loss (TGA) ([10]; up to 150° C., crystals from Example 5 Step 8): approximately 0.2%
weight loss during initial drying ([11]; 0% RH, 25 °C): approximately 0.01%
hygroscopicity / hydrate formation ([11]; storage in elevated humidity conditions): physically stable with regard to hygroscopicity
total weight increase ([11]; upon equilibration at 90% RH, 25 °C): 0.24%

CC1=C(/C=C/C(C)=C/C=C/C(C)=C/C(=O)O)C(C)(C)CCC1 [Tretinoin]
remissions in APL patients [12]: 64-100%

C/C1=C/C[C@@H](/C(C)=C/c2csc(C)n2)OC(=O)C[C@H](O)C(C)(C)C(=O)[C@H](C)[C@@H](O)[C@@H](C)CCC1 [desoxyepothilone B]
IC50 [13]: 0.017 µM

Nc1nc(F)nc2c1ncn2[C@@H]1O[C@H](CO)[C@@H](O)[C@@H]1O [fludarabine, 9-β-D-arabinofuranosyl-2-fluoro-adenine]
rate of complete responses ([14]; v 3% with alkylator-based therapies): 27%
duration of progression-free survival ([14]; v 17 months with alkylator-based therapies): 33 months

From patent US20100021420A1, “COMBINATIONS OF PYRAZOLE DERIVATIVES FOR THE INHIBITION OF CDKS AND GSK'S” (ASTEX THERAPEUTICS LIMITED, priority 2006, published 2010)
